According to US20170101383A1, “DIAMINOTRIAZINE DERIVATIVES AS HERBICIDES” (BASF SE, priority 2014, published 2017):

Experiments:
Type in all cases: in vivo
Abutilon theophrasti = test: greenhouse post-emergence treatment, ABUTH; settings: 1.000 kg/ha, scale 0 to 100
Source text: (§1) The seeds of the test plants were sown separately for each species. For the post-emergence treatment, the test plants were first grown to a height of 3 to 15 cm, depending on the plant habit, and only then treated with the active ingredients which had been suspended or emulsified in water. For this purpose, the test plants were either sown directly and grown in the same containers, or they were first grown separately as seedlings and transplanted into the test containers a few days prior to treatment. Depending on the species, the plants were kept at 10-25° C. or 20-35° C., respectively. The test period extended over 2 to 4 weeks. During this time, the plants were tended, and their response to the individual treatments was evaluated. Evaluation was carried out using a scale from 0 to 100. 100 means no emergence of the plants, or complete destruction of at least the aerial moieties, and 0 means no damage, or normal course of growth. A moderate herbicidal activity is given at values of at least 60, a good herbicidal activity is given at values of at least 70, and a very good herbicidal activity is given at values of at least 85. The plants used in the greenhouse experiments were of the following species: [table]

Setaria faberi [1] = test: greenhouse pre-emergence treatment, SETFA; settings: 0.500 kg/ha, scale 0 to 100
Source text: (§2) The seeds of the test plants were sown separately for each species. For the pre-emergence treatment, the active ingredients, which had been suspended or emulsified in water, were applied directly after sowing by means of finely distributing nozzles. The containers were irrigated gently to promote germination and growth and subsequently covered with transparent plastic hoods until the plants had rooted. This cover caused uniform germination of the test plants, unless this had been impaired by the active ingredients. Depending on the species, the plants were kept at 10-25° C. or 20-35° C., respectively. The test period extended over 2 to 4 weeks. During this time, the plants were tended, and their response to the individual treatments was evaluated. Evaluation was carried out using a scale from 0 to 100. 100 means no emergence of the plants, or complete destruction of at least the aerial moieties, and 0 means no damage, or normal course of growth. A moderate herbicidal activity is given at values of at least 60, a good herbicidal activity is given at values of at least 70, and a very good herbicidal activity is given at values of at least 85. The plants used in the greenhouse experiments were of the following species: [table]

Amaranthus retroflexus [2] = test: greenhouse post-emergence treatment, AMARE; settings: for pest or weed control at 1000 g/ha: Amaranthus retroflexus, 1.000 kg/ha, scale 0 to 100, read-out: herbicidal activity against AMARE; for herbicidal activity against AMARE: 0.500 kg/ha, scale 0 to 100
Source text: as §1

Apera spica-venti [3] = test: greenhouse pre-emergence treatment, APESV; settings: 0.500 kg/ha, scale 0 to 100
Source text: as §2

Alopecurus myosuroides = test: greenhouse pre-emergence treatment, ALOMY; settings: 0.500 kg/ha, scale 0 to 100
Source text: as §2

Setaria faberi [4] = test: greenhouse post-emergence treatment, SETFA; settings: 1.000 kg/ha, scale 0 to 100
Source text: as §1

Amaranthus retroflexus [5] = test: greenhouse pre-emergence treatment, AMARE; settings: 0.500 kg/ha, scale 0 to 100
Source text: as §2

Apera spica-venti [6] = test: greenhouse post-emergence treatment, APESV; settings: 0.500 kg/ha, scale 0 to 100
Source text: as §1

## Nc1nc(Nc2c(F)c(F)c(F)c(F)c2F)nc(N2CCCC2)n1 [Example 6]
Abutilon theophrasti
  herbicidal activity against ABUTH: very good (a very good herbicidal activity is given at values of at least 85)
Setaria faberi [1]
  herbicidal activity against SETFA: very good (a very good herbicidal activity is given at values of at least 85)
Amaranthus retroflexus [2]
  pest or weed control at 1000 g/ha: ≥ 85%
Apera spica-venti [3]
  herbicidal activity against APESV: very good (a very good herbicidal activity is given at values of at least 85)
Alopecurus myosuroides
  herbicidal activity against ALOMY: very good (a very good herbicidal activity is given at values of at least 85)
Setaria faberi [4]
  herbicidal activity against SETFA: very good (a very good herbicidal activity is given at values of at least 85)

## Nc1nc(Nc2c(F)c(F)c(F)c(F)c2F)nc(N2CCCCCC2)n1 [Example 7]
Abutilon theophrasti
  herbicidal activity against ABUTH: very good (a very good herbicidal activity is given at values of at least 85)
Setaria faberi [1]
  herbicidal activity against SETFA: good to very good
Amaranthus retroflexus [2]
  pest or weed control at 1000 g/ha: ≥ 85%
Apera spica-venti [3]
  herbicidal activity against APESV: good to very good
Alopecurus myosuroides
  herbicidal activity against ALOMY: good to very good

## CN(Cc1ccccc1)c1nc(N)nc(Nc2c(F)c(F)c(F)c(F)c2F)n1 [Example 10]
Abutilon theophrasti
  herbicidal activity against ABUTH: very good (a very good herbicidal activity is given at values of at least 85)
Amaranthus retroflexus [2]
  pest or weed control at 1000 g/ha: ≥ 85%

## CC1CCC(C)N1c1nc(N)nc(Nc2c(F)c(F)c(F)c(F)c2F)n1 (stereo not drawn) [Example 17]
Amaranthus retroflexus [5]
  herbicidal activity against AMARE: very good (a very good herbicidal activity is given at values of at least 85)
Setaria faberi [1]
  herbicidal activity against SETFA: very good (a very good herbicidal activity is given at values of at least 85)
Apera spica-venti [3]
  herbicidal activity against APESV: very good (a very good herbicidal activity is given at values of at least 85)

## CC1CCCN1c1nc(N)nc(Nc2c(F)c(F)c(F)c(F)c2F)n1 (stereo not drawn) [Example 20]
Amaranthus retroflexus [5]
  herbicidal activity against AMARE: very good (a very good herbicidal activity is given at values of at least 85)
Setaria faberi [1]
  herbicidal activity against SETFA: very good (a very good herbicidal activity is given at values of at least 85)
Apera spica-venti [3]
  herbicidal activity against APESV: very good (a very good herbicidal activity is given at values of at least 85)

## CC1CCCN1c1nc(N)nc(Nc2c(F)c(F)cc(F)c2F)n1 (stereo not drawn) [Example 21]
Amaranthus retroflexus [5]
  herbicidal activity against AMARE: very good (a very good herbicidal activity is given at values of at least 85)
Setaria faberi [1]
  herbicidal activity against SETFA: very good (a very good herbicidal activity is given at values of at least 85)
Alopecurus myosuroides
  herbicidal activity against ALOMY: very good (a very good herbicidal activity is given at values of at least 85)

## CCN(C)c1nc(N)nc(Nc2c(F)c(F)cc(F)c2F)n1 [Example 22]
Amaranthus retroflexus [5]
  herbicidal activity against AMARE: very good (a very good herbicidal activity is given at values of at least 85)
Apera spica-venti [3]
  herbicidal activity against APESV: very good (a very good herbicidal activity is given at values of at least 85)
Alopecurus myosuroides
  herbicidal activity against ALOMY: very good (a very good herbicidal activity is given at values of at least 85)

## COC[C@@H]1CCCN1c1nc(N)nc(Nc2c(F)c(F)c(F)c(F)c2F)n1 [Example 29]
Amaranthus retroflexus [5]
  herbicidal activity against AMARE: very good (a very good herbicidal activity is given at values of at least 85)
Amaranthus retroflexus [2]
  herbicidal activity against AMARE: very good (a very good herbicidal activity is given at values of at least 85)
Apera spica-venti [3]
  herbicidal activity against APESV: very good (a very good herbicidal activity is given at values of at least 85)
Apera spica-venti [6]
  herbicidal activity against APESV: very good (a very good herbicidal activity is given at values of at least 85)

## COC[C@@H]1CCCN1c1nc(N)nc(Nc2c(F)c(F)cc(F)c2F)n1 [Example 30]
Amaranthus retroflexus [5]
  herbicidal activity against AMARE: very good (a very good herbicidal activity is given at values of at least 85)
Amaranthus retroflexus [2]
  herbicidal activity against AMARE: very good (a very good herbicidal activity is given at values of at least 85)
Apera spica-venti [3]
  herbicidal activity against APESV: very good (a very good herbicidal activity is given at values of at least 85)
Apera spica-venti [6]
  herbicidal activity against APESV: very good (a very good herbicidal activity is given at values of at least 85)

## COCC1CCCN1c1nc(N)nc(Nc2c(F)c(F)c(F)c(F)c2F)n1 (stereo not drawn) [Example 31]
Amaranthus retroflexus [5]
  herbicidal activity against AMARE: good to very good
Apera spica-venti [3]
  herbicidal activity against APESV: good to very good
Apera spica-venti [6]
  herbicidal activity against APESV: very good (a very good herbicidal activity is given at values of at least 85)
